From patent US20250127907A1, “PARP INHIBITORS” (Stablix, Inc., priority 2023, published 2025)
Read-outs that look alike come from different tables or passages of the source.

Columns and labels:
Format in all cases: cell-based
[1] = system: HCC1806 cells; experiment: Cell proliferation assay (HCC1806); details: Homo sapiens, 168 h, 7 days
Procedure: (§1) Cells are counted, diluted to desired density and 40 μL of cell suspension is added into each 384-well tissue-culture treated plates. Plates are incubated in Tissue Culture incubator at 37° C./5% C02 overnight.
(§2) Next day, 40 nl test compounds that are prepared from source plates are transferred to the seeded cells from overnight. Plates are incubated at 37° C./5% C02 for a total of 7 days. After 7-day incubation, plates are equilibrated to room temperature and 30 ul of Cell Counting-Lite is added to each well for a 30 min incubation followed by reading on EnVision.
(§3) The letter codes for the cell proliferation assay in A2780, HCC1806, and MDA-MB-436 cells include: A (<10 nM), B (>10-100 nM), C (>100-1000 nM), D (>1000-10000 nM), E (>10000 nM), and “-” is not tested.

[2] = system: A2780 cells; experiment: Cell proliferation assay (A2780); details: Homo sapiens, 168 h, 7 days
Procedure: as §1, §2, §3

[3] = target: PARP1 (Homo sapiens, UniProt P09874); experiment: PARP trapping assay in U2OS cells; design: endogenous in cells; host or cells: U2OS; details: U2OS cells, MMS, 4 hrs; read-out: PARP Trapping (U2OS)
PARP1, sequence (P09874 whole entry): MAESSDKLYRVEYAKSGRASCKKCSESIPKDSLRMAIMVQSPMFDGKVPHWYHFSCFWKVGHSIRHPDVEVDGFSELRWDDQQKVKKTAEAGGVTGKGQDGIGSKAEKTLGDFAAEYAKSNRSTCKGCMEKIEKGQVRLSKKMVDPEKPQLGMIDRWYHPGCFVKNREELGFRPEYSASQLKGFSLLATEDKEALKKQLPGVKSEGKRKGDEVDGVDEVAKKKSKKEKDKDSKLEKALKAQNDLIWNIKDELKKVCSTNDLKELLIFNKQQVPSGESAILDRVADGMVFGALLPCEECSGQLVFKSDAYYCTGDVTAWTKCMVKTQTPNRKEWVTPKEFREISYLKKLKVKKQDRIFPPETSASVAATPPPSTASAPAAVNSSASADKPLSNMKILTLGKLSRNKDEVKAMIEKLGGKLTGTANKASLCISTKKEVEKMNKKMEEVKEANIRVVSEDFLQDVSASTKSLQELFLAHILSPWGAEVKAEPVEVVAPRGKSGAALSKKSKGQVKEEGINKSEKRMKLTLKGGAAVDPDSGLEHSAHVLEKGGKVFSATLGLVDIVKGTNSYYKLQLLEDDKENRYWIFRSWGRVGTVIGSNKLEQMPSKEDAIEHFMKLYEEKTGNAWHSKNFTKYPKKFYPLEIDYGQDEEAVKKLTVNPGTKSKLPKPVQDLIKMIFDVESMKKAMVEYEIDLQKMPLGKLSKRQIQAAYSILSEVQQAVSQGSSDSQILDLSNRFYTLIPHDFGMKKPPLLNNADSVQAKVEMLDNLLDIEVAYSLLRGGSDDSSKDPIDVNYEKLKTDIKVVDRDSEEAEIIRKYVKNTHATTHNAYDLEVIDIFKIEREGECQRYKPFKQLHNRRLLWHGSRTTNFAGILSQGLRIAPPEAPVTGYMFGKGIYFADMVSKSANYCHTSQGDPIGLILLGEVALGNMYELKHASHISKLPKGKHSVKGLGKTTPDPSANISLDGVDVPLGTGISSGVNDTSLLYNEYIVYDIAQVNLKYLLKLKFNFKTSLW
Procedure: U2OS cells are seeded at 15,000 cells/well in 90 ul medium and incubated in the TC incubator for overnight.
Next day, test compounds are prepared in a source plate along with addition of DNA damage reagent MMS simultaneously and 10 ul of the diluted mixture is added to the cell plate and incubated for 4 hrs under T/C conditions.
After 4 hrs, following aspiration and washing, add 100 ul of cold cytoskeleton removal buffer (0.5% Triton X-100) and incubated for 10 min. At the end of incubation, slowly the buffer is removed, and cells are fixed with ice cold MeOH for 15 min at −20C. Followed by wash steps, cells are blocked with 1×PBS/3% BSA/0.05% Tween for 1 h at room temperature.
Cells are stained with anti PARP1 antibody (abeam ab227244, 1:1000), in 1×PBS/1% BSA overnight at 4C.
Wash and add DAPI, scan cells in Celigo.
Data Analysis: DAPI staining is used to segment nuclei and AF488 fluorescence intensity per nucleus is measured.
(§4) The letter codes for the PARP1-enzyme assay include: A (<1 nM), B (>1-10 nM), C (>10-100 nM), D (>100-1000 nM), E (>1000 nM), and “-” is not tested. The letter codes for the PARP trapping assay, and parylation assay include: A (<10 nM), B (>10-100 nM), C (>100-1000 nM), […], E (>10000 nM), and “-” is not tested.

[4] = system: Poly/Mono-ADP Ribose in U2OS cells; experiment: PAR in cell western assay (parylation) in U2OS cells; details: Homo sapiens, read-out: Parylation (U2OS)
Procedure: U2OS cells are seeded at 2667 cells per well in 24 ul medium into poly-D lysine-coated 384 well plate and incubated in the TC incubator for O/N
The next day, test comps are diluted in a source plate and 6 μL of the diluted comp is added to the cell plate; mixed well and incubated for 6 hrs. DNA damage is induced with 2 mM H2O2 for 10 min. After discarding the medium, cells are fixed in ice cold Methanol at for 20 min at −20C. After a wash step at room temperature, cells are permeabilized with 0.05% NP-40 in PBS for 10 min, followed by wash steps. Cells are blocked with 1% BSA, at room temperature for 1 hr. Cells are stained with anti mono/polyADP ribose antibody (E6F6A, Cell signaling, 1:5000) in 1×PBS/1% BSA/0.05% Tween o/n at 4C.
Next Day, cells are washed and incubated with anti-Rabbit 800CV (Licor antibody, 1:500) and CellTag 700 (Licor, 1:800) in 1×PBS/1% BSA/0.05% Tween for 1 h. After washing, plates are scanned using LICOR and are quantified.
Parylation inhibition is reported as % control inhibition.
as §4

[5] = system: MDA-MB-436 cells; experiment: Cell proliferation assay (MDA-MB-436); details: Homo sapiens, 168 h, 7 days
Procedure: as §1, §2, §3

Row | SMILES | IC50 [1] | IC50 [2] | IC50 [3] | IC50 ([4]; U2OS cells, 6 hrs, 2 mM H2O2) | IC50 [5] | IC50 ([4]; U2OS, 6 h)
1 | CCc1cccc(-c2cnc(C(=O)NC34CCC(CN5CCN(CC(=O)N6CCN(C(=O)c7cc(Cc8n[nH]c(=O)c9ccccc89)ccc7F)CC6)CC5)(CC3)OC4)c(NC(C)=O)c2)c1 [Compound I-469] | 10 to 100 nM | 10 to 100 nM | 10 to 100 nM | 10 to 100 nM | < 10 nM | 
2 | CCc1cccc(-c2cnc(C(=O)NC34CCC(CN5CCN(CC(=O)N6CCN(C(=O)c7cc(Cc8n[nH]c(=O)c9ccccc89)ccc7F)CC6)CC5)(CC3)OC4)c(N)c2)c1 [Compound I-470] | 10 to 100 nM | 10 to 100 nM | 10 to 100 nM | 100 to 1000 nM | < 10 nM | 
3 | CC(C)(F)C(=O)N1CCCC(c2cccc(C(=O)N[C@@H](C(=O)N3CCN(CC4CCN(CC(=O)N5CCN(C(=O)c6cc(Cc7n[nH]c(=O)c8ccccc78)ccc6F)CC5)CC4)CC3)C3CCCCC3)c2)C1 (some centres unmarked) [Compound I-528] | 100 to 1000 nM | 10 to 100 nM | 100 to 1000 nM | 10 to 100 nM | < 10 nM | 
4 | CCc1cccc(-c2cc(F)c(C(=O)N3CCC(OC4CCN(CC(=O)N5CCN(C(=O)c6cc(Cc7n[nH]c(=O)c8ccccc78)ccc6F)CC5)CC4)CC3)c(F)c2)c1 [Compound I-590] | 10 to 100 nM | < 10 nM | 10 to 100 nM | < 10 nM | < 10 nM | 
5 | O=C(CN1CCN(CC2CCN(C(=O)c3c(F)cc(-c4ccccc4)cc3F)CC2)CC1)N1CCN(C(=O)c2cc(Cc3n[nH]c(=O)c4ccccc34)ccc2F)CC1 [Compound I-635] | 10 to 100 nM | < 10 nM | 10 to 100 nM | < 10 nM | < 10 nM | 
6 | CCc1cccc(-c2cc(F)c(C(=O)N3CC4CCC3CC4CN3CCN(CC(=O)N4CCN(C(=O)c5cc(Cc6n[nH]c(=O)c7ccccc67)ccc5F)CC4)CC3)c(F)c2)c1 (centres unmarked) [Compound I-690] | 10 to 100 nM | 100 to 1000 nM | 10 to 100 nM | 10 to 100 nM | < 10 nM | 
7 | O=C(CN1CCN(CC2CCN(C(=O)c3c(F)cc(-c4cnccn4)cc3F)CC2)CC1)N1CCN(C(=O)c2cc(Cc3n[nH]c(=O)c4ccccc34)ccc2F)CC1 [Compound I-739] | 100 to 1000 nM | 100 to 1000 nM | 10 to 100 nM | < 10 nM | < 10 nM | 
8 | CC1(OC(=O)N[C@@H](C(=O)N2CCC(OC3CCN(CC(=O)N4CCN(C(=O)c5cc(Cc6n[nH]c(=O)c7ccccc67)ccc5F)CC4)CC3)CC2)C2CCCCC2)CCC1 [Compound I-749] | 10 to 100 nM | 10 to 100 nM | 10 to 100 nM | 10 to 100 nM | < 10 nM | 
9 | O=C(N[C@@H](C(=O)N1CCC(OC2CCN(CC(=O)N3CCN(C(=O)c4cc(Cc5n[nH]c(=O)c6ccccc56)ccc4F)CC3)CC2)CC1)C1CCCCC1)c1cccc(C2CCCN(C(=O)C34CC(F)(C3)C4)C2)c1F (some centres unmarked) [Compound I-750] | 10 to 100 nM | 10 to 100 nM | 10 to 100 nM | 10 to 100 nM | < 10 nM | 
10 | O=C(CN1CCC(OC2CCN(C(=O)c3c(F)cc(-c4ccnnc4)cc3F)CC2)CC1)N1CCN(C(=O)c2cc(Cc3n[nH]c(=O)c4ccccc34)ccc2F)CC1 [Compound I-772] | 100 to 1000 nM | 100 to 1000 nM | < 10 nM | 10 to 100 nM | < 10 nM | 
11 | CCc1cccc(-c2cnc(C(=O)NC34CCC(CN5CCN(CC(=O)N6CCN(C(=O)c7cc(Cc8n[nH]c(=O)c9ccccc89)ccc7F)CC6)CC5)(CC3)OC4)c(NC(=O)OC(C)(C)C)c2)c1 [Compound I-800] | 100 to 1000 nM | 100 to 1000 nM | 10 to 100 nM | 100 to 1000 nM | < 10 nM | 
12 | CC(C)(C)OC(=O)N1CCCC(c2cccc(Oc3cnnc(N4CCC(OC5CCN(CC(=O)N6CCN(C(=O)c7cc(Cc8n[nH]c(=O)c9ccccc89)ccc7F)CC6)CC5)CC4)c3)c2)C1 (centres unmarked) [Compound I-870] | 10 to 100 nM | 10 to 100 nM | 10 to 100 nM | 10 to 100 nM | < 10 nM | 
13 | CC(C)(C)OC(=O)N[C@@H](C(=O)N1CCC(C)(OC2CCN(CC(=O)N3CCN(C(=O)c4cc(Cc5n[nH]c(=O)c6ccccc56)ccc4F)CC3)CC2)CC1)C1CCCCC1 [Compound I-871] | 100 to 1000 nM | 100 to 1000 nM | 10 to 100 nM | 10 to 100 nM | < 10 nM | 
14 | CC(C)(C)OC(=O)N[C@@H](C(=O)N1CC[C@H](OC2CCN(CC(=O)N3CCN(C(=O)c4cc(Cc5n[nH]c(=O)c6ccccc56)ccc4F)CC3)CC2)C1)C1CCCCC1 [Compound I-875] | 100 to 1000 nM | 100 to 1000 nM | 100 to 1000 nM | 100 to 1000 nM | < 10 nM | 
15 | O=C(c1cc(Cc2n[nH]c(=O)c3ccccc23)ccc1F)N1CCN(C(=O)C2CC2)CC1 [Olaparib, reference compound] | 1000 to 10000 nM | 1000 to 10000 nM |  |  | 10 to 100 nM | < 10 nM

Second part, the compound after the results:

Row | IC50 [1] | IC50 [2] | IC50 [3] | IC50 ([4]; U2OS cells, 6 hrs, 2 mM H2O2) | IC50 [5] | IC50 ([4]; U2OS, 6 h) | SMILES
16 | 10 to 100 nM | 10 to 100 nM | 100 to 1000 nM | 10 to 100 nM | < 10 nM |  | CCc1cccc(-c2cnc(C(=O)NCCOCCNCC(=O)N3CCN(C(=O)c4cc(Cc5n[nH]c(=O)c6ccccc56)ccc4F)CC3)c(N)c2)c1 [Compound I-402]
17 | 100 to 1000 nM | 10 to 100 nM | 100 to 1000 nM | 10 to 100 nM | < 10 nM |  | CCc1cccc(-c2cnc(C(=O)NCCOCCNCC(=O)N3CCN(C(=O)c4cc(Cc5n[nH]c(=O)c6ccccc56)ccc4F)CC3)c(C)c2)c1 [Compound I-489]
18 | 100 to 1000 nM | 100 to 1000 nM | 10 to 100 nM | 10 to 100 nM | < 10 nM |  | O=C(CN1CCN(CC2CCN(C(=O)c3c(F)cc(-c4ccncn4)cc3F)CC2)CC1)N1CCN(C(=O)c2cc(Cc3n[nH]c(=O)c4ccccc34)ccc2F)CC1 [Compound I-768]
19 | 10 to 100 nM | 10 to 100 nM | < 10 nM | < 10 nM | < 10 nM |  | O=C(CN1CCN(CC2CCN(C(=O)c3c(F)cc(-c4ccccn4)cc3F)CC2)CC1)N1CCN(C(=O)c2cc(Cc3n[nH]c(=O)c4ccccc34)ccc2F)CC1 [Compound I-769]
20 | 100 to 1000 nM | 100 to 1000 nM | 10 to 100 nM | < 10 nM | < 10 nM |  | O=C(CN1CCC(OC2CCN(C(=O)c3c(F)cc(-c4cccnn4)cc3F)CC2)CC1)N1CCN(C(=O)c2cc(Cc3n[nH]c(=O)c4ccccc34)ccc2F)CC1 [Compound I-771]
21 | 100 to 1000 nM | 10 to 100 nM | 100 to 1000 nM | 10 to 100 nM | < 10 nM |  | CC(C)(C)OC(=O)Nc1cc(-c2cccc(C3COC3)c2)cnc1C(=O)NCCOCCNCC(=O)N1CCN(C(=O)c2cc(Cc3n[nH]c(=O)c4ccccc34)ccc2F)CC1 [Compound I-803]
22 | 100 to 1000 nM | 10 to 100 nM | 100 to 1000 nM | 10 to 100 nM | < 10 nM |  | CC(C)(C)OC(=O)Nc1cc(-c2cccc(C#N)c2)cnc1C(=O)NCCOCCNCC(=O)N1CCN(C(=O)c2cc(Cc3n[nH]c(=O)c4ccccc34)ccc2F)CC1 [Compound I-818]
23 | 10 to 100 nM | 10 to 100 nM |  | 100 to 1000 nM | < 10 nM |  | CC(C)(C)C(=O)N1CCC[C@@](F)(c2cccc(C(=O)N[C@@H](C(=O)N3CCC(OC4CCN(CC(=O)N5CCN(C(=O)c6cc(Cc7n[nH]c(=O)c8ccccc78)ccc6F)CC5)CC4)CC3)C3CCCCC3)c2F)C1 [Compound I-994]
